Assay results taken from patent US20240425555A1, “MUTANT BRD4 POLYPEPTIDES AND METHODS OF USE THEREOF” (Northwestern University, priority 2023, published 2024).

Assays:
Ser2P = Ser2P ChIP-seq upon JQ1 or dBET6 treatment; type: cell-based, human; settings: BRD4-IAA7 cells; series concentration of JQ1 or 250 nM dBET6, 3 h
Protocol: (§1) FIGS. 5A-5J collectively illustrate the identification of a distinct BRD4-PTEFb population, which is active but not histone acetylation-bound. FIG. 5A illustrates the track examples for AID ChIP-seq in the BRD4-AID line and CCNT1 ChIP-seq in the BRD4-IAA7 line with/without auxin treatment (3 h). H3K27ac ChIP-seq signal in the BRD4-AID line is shown for comparison. FIG. 5B illustrates the heatmap showing the genome-wide BRD4 and CCNT1 occupancy profile and the corresponding fold change upon auxin treatment for the conditions in A. Genes ranked by BRD4 signal in control. FIG. 5C illustrates the scatter plot showing the relative promoter density of CCNT1 vs BRD4, calculated by the log 2RPKM of the ChIP-seq signals at the regions flanking (±1 Kb) the Pol II pausing sites. FIG. 5D illustrates the track examples for GFP ChIP-seq signal upon induction of GFP-tagged BRD4-FL or the indicated mutants (left). Heatmap showing the genome-wide fold changes of the GFP-tagged BRD4 mutants relative to the vector (right). The endogenous BRD4 was depleted by auxin treatment (3 h) in all samples. Genes are ranked by GFP signal in the GFP-BRD4-FL condition. FIG. 5E illustrates the track examples for CCNT1 ChIP-seq signal upon endogenous BRD4 depletion and rescue with indicated GFP-tagged mutants (left). Heatmap showing the genome-wide CCNT1 fold changes (right). […]

Pol II pausing [1] = settings: reference 21; cited from earlier work
Pol II pausing [2] = assay: total Pol II ChIP-seq upon auxin, JQ1, dBET6 or NVP-2 treatment; type: cell-based, human; settings: BRD4-IAA7 cells
Text: FIG. 1A illustrates the updated BRD4-IAA7 degron line. The F-box protein AtAFB2 was integrated into the C terminus of the BRD4 locus under the control of an independent promoter. […] These treatment concentrations/durations are relevant to all of FIG. 1. […] The gene list (N=6481) in this analysis is used throughout the study (except for FIGS. 3H-J). FIG. 1D illustrates the estimated Cumulative Density Function (ECDF) of pause release ratios (PRR, reported as log 2 fold change) for auxin treatment vs untreated control. The PRR is the ratio of Pol II occupancy within gene bodies to its occupancy at promoters. A leftward shift of the curve indicates an increase in the frequency and/or duration of promoter-proximal pausing, while a rightward shift indicates reduced pausing and/or more efficient release into gene bodies.
FIGS. 8A-8E. collectively illustrate the differences in Pol II pausing induced by BRD4 depletion and bromodomain inhibition, related to FIG. 1. FIG. 8A illustrates the western blot showing the expression of HA-tagged AtAFB2 and the auxin-induced degradation of V5-tagged BRD4 using anti-tag antibodies. FIG. 8B illustrates the western blot comparing the BRD4 protein expression level and degradation kinetics of the previously published BRD4-AID degron to those of the BRD4-IAA7 degron used in this study 12. Note: in FIGS. 8A and 8B, the BRD4-IAA7 clone used is D4 (Hygromycin selected); it is G3 (Neomycin selected) otherwise in the study. […] FIG. 8E illustrates the track examples of Pol II ChIP-seq signal at the HSPA8 and GAPDH loci upon NVP-2 treatment (2 h) and corresponding heatmaps showing Pol II occupancy profiles and fold change in occupancy vs control upon NVP-2 treatment.
To specifically deplete BRD4 without affecting other BET proteins, we generated an updated BRD4 degron line by modifying the published miniIAA7 degron system (hereafter BRD4-IAA7) to reduce basal degradation seen with AID degron-tagged BRD4^30 (FIGS. 1A and 8A).
DLD1 cells were crosslinked with 15 ml 1% PFA (ThermoFisher, #28908) in PBS on 15 cm plates for 10 minutes at RT and quenched by the addition of 2 ml 2.5M glycine followed by shaking for 5 minutes. Crosslinked cells were collected by scraping. Chromatin sonication was performed for 10 minutes using a Covaris E200 set to 10% duty factor, 200 cycles per burst, and 140 peak intensity power. For endogenous protein ChIP, 10-20% of mouse embryonic fibroblasts (MEF) chromatin (prepared the same way as in DLD1 cells) was added to each sample as a spike-in control. For overexpressed protein ChIP, such as GFP-ChIP, 20 ng spike-in chromatin (Active Motif, #53083) and 2 ug spike-in antibody (Active Motif, #61686) were added to each sample. Immunoprecipitation was carried out at 4° C. overnight using 5ul of Rpb1 (Cell Signaling Technology, #D8L4Y), 5ul of Ser2p (Active Motif, #61984), 10ul of CCNT1 (Cell Signaling Technology, #81464), 10ul of CDK9 (Santa Cruz Biotechnology, #sc-13130 X) antibodies, or 200ul of a cocktail consisting of 50ul of each GFP antibody (DSHB, #GFP-G1, #GFP-12A6, #GFP-12E6, #GFP-8H11). Immune complexes were enriched with Protein G-coupled Dynabeads (Invitrogen, #10004D) at 4° C. for >=4 h, and incubated with proteinase K (Roche, #3115828001) to reverse crosslink at 65° C. overnight. Eluted DNA was purified with the QIAquick PCR Purification Kit (Qiagen, #28106), and libraries were prepared using the KAPA HTP library preparation kit (Roche, #07961901001) for sequencing on the NovaSeq 6000.
Reads were aligned to hg38 with bowtie 1/250. Genes (N=6,481) with pausing site and TES annotation were obtained from a previously published study51. Promoter regions were designated as spanning from 100 bp upstream to 300 bp downstream of the pausing site. Gene body regions were designated as spanning from 300 bp downstream of the pausing site to the TES. FeatureCounts 2.0.152 was used to calculate the total mapped reads from Pol II ChIP-seq at promoters and within gene bodies. […]

CCNT1 = CCNT1 ChIP-seq with increasing concentrations of JQ1; type: cell-based, human; settings: BRD4-IAA7 cells; series concentration of JQ1, 3 h
Protocol: as §1

Cc1sc2c(c1C)C(c1ccc(Cl)cc1)=N[C@@H](CC(=O)OC(C)(C)C)c1nnc(C)n1-2 [JQ1]
Ser2P ChIP-seq signals (Ser2P): minimal | effect on Pol II pausing (RNA-seq, NET-seq) (Pol II pausing [1]): only a modest effect on Pol II pausing | effect on pausing at super enhancer-controlled genes such as Myc (Pol II pausing [2]; MYC locus): notable | Pol II pausing (Pol II occupancy profile) (Pol II pausing [2]; auxin 500 uM, JQ1 1 uM, dBET6 250 nM, 3 h): induced little to no pausing | gene-by-gene log 2PRR correlation with auxin treatment (Pol II pausing [2]; scatter plot): poorly correlated | CCNT1 ChIP-seq signals (CCNT1): decreased dramatically with increasing concentrations
